Patent EP3383875B1, “3-PYRIMIDINYL PYRROLO [2,3-B] PYRIDINE AS ANTICANCER AGENTS AND THE PROCESS FOR THE PREPARATION THEREOF” (Council Of Scientific & Industrial Research, priority 2015, dated 2017)
Read-outs that look alike come from different tables or passages of the source.

Assays:
PC-3 = test: MTT assay on cancer cell line PC-3; type: cell-based, human; conditions: for inhibition at 10 µM: Homo sapiens; for In vitro cell inhibition, % of inhibition, PC-3: at 10µM
Protocol: (§1) Cell culture, growth conditions and treatments. […] Different molecules were dissolved in DMSO and were delivered to cell cultures in complete medium.

CDK-9/Cyclin T1 = CDK-9/Cyclin T1 (Homo sapiens, UniProt P50750); test: CDK inhibition assay, CDK-9/Cyclin T1 against substrate peptide, 33P-ATP; type: biochemical; conditions: at 500 nM
Protocol: (50-1000 cpm/pmole) and incubated for 30 min at room temperature. Assays were stopped by addition of 5 µl of 0.5 M (3%) orthophosphoric acid and then harvested onto P81 Unifilter plates with a wash buffer of 50 mM orthophosphoric acid.

MDA-MB435 = test: MTT assay on cancer cell line MDA-MB435; type: cell-based, Human; conditions: for inhibition at 10 µM: Homo sapiens, MDA-MB-435
Protocol: as §1

MCF-7 = test: MTT assay on cancer cell line MCF-7; type: cell-based, Human; conditions: for inhibition at 10 µM: Homo sapiens; for In vitro cell inhibition, % of inhibition, MCF-7: at 10µM
Protocol: as §1

CDK-2/cyclin A = CDK-2/cyclin A (Homo sapiens, UniProt P24941); test: CDK inhibition assay, CDK-2/cyclin A against Histone HI, 33P-ATP; type: biochemical; conditions: at 500 nM
Summary of the method: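 CDK-2/cyclin A (5-20 mU) phosphorylating Histone HI (1 mg/ml) in 50 mM Hepes pH 7.5, 100 mM NaCl, 10 mM Mg acetate, 0.02 mM [33P-γ-ATP], 30 min at room temperature. Stopped with orthophosphoric acid, captured on P81 filters for radiometric readout.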

SHSY-5Y = test: MTT assay on cancer cell line SHSY-5Y; type: cell-based, human; conditions: for inhibition at 10 µM: Homo sapiens, SH-SY5Y; for In vitro cell inhibition, % of inhibition, SHSY-5Y: at 10µM
Protocol: as §1

HCT-116 = test: MTT assay on cancer cell line HCT-116; type: cell-based, human; conditions: for inhibition at 10 µM: Homo sapiens
Protocol: as §1

[1] = Table 8, read-out: In vitro cell inhibition, % of inhibition, PC-3
[2] = Table-7, read-out: In vitro CDK9 % of inhibition
[3] = read-out: inhibition against CDK9
[4] = MDA-MB435, at 10µM, Table 8, read-out: In vitro cell inhibition, % of inhibition, MDA-MB435
[5] = MCF7, MCF-7, Table 8, read-out: In vitro cell inhibition, % of inhibition, MCF-7
[6] = Table-7, read-out: In vitro CDK2 % of inhibition
[7] = read-out: inhibition against CDK2
[8] = SHSY-5Y, Table 8, read-out: In vitro cell inhibition, % of inhibition, SHSY-5Y
[9] = read-out: inhibition against SHSY-5Y cell lines
[10] = at 10µM, Table 8, read-out: In vitro cell inhibition, % of inhibition, HCT-116
[11] = read-out: inhibition against PC-3 cell lines
[12] = Table-6, read-out: In vitro CDK9 % of inhibition
[13] = at 10 µM, read-out: inhibition against MDAMB-435 cell lines
[14] = MCF7, read-out: inhibition against MCF-7 cell lines
[15] = Table-6, read-out: In vitro CDK2 % of inhibition
[16] = at 10 µM, read-out: inhibition against HCT-116 cell lines
[17] = Table 9 (for reference), read-out: In vitro cell inhibition, % of inhibition, PC-3
[18] = MDA-MB435, at 10µM, Table 9 (for reference), read-out: In vitro cell inhibition, % of inhibition, MDA-MB435
[19] = MCF7, MCF-7, Table 9 (for reference), read-out: In vitro cell inhibition, % of inhibition, MCF-7
[20] = SHSY-5Y, Table 9 (for reference), read-out: In vitro cell inhibition, % of inhibition, SHSY-5Y
[21] = at 10µM, Table 9 (for reference), read-out: In vitro cell inhibition, % of inhibition, HCT-116

Sequence of CDK-9/Cyclin T1 (P50750 whole entry): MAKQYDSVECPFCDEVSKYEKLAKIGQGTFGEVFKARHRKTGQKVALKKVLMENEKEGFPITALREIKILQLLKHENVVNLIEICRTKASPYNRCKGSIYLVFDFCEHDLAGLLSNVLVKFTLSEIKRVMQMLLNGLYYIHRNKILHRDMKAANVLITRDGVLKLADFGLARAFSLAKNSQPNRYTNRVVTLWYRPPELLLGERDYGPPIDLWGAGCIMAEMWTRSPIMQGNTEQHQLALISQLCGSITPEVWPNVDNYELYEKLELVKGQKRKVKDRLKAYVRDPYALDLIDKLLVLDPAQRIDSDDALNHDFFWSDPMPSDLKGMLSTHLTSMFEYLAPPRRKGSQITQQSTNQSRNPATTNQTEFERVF
Sequence of CDK-9/Cyclin T1 (O60563 whole entry partner): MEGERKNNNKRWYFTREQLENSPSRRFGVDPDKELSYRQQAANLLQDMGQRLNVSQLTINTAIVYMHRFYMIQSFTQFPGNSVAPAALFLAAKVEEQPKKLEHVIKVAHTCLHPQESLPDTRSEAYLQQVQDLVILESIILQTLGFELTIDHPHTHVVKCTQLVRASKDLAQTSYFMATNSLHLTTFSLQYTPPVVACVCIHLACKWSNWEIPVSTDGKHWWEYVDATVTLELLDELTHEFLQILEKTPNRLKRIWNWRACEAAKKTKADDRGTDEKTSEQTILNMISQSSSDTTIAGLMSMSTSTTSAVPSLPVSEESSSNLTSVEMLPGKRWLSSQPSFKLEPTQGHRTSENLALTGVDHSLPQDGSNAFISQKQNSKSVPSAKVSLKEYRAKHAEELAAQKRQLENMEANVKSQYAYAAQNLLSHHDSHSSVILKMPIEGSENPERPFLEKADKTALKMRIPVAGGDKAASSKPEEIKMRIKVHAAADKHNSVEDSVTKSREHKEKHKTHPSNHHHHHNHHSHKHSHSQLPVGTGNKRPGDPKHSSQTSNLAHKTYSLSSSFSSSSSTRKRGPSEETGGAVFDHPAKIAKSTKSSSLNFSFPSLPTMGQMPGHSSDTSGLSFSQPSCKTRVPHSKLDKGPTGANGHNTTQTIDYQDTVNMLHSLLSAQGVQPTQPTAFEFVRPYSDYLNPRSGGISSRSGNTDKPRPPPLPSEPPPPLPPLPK

Row | Compound | inhibition at 10 µM (PC-3; [1]) | inhibition at 0.5 µM (CDK-9/Cyclin T1; [3]) | inhibition at 10 µM (MDA-MB435; [4]) | inhibition at 10 µM (MCF-7; [5]) | inhibition at 0.5 µM (CDK-2/cyclin A; [7]) | inhibition at 10 µM (SHSY-5Y; [8]) | inhibition at 10 µM (SHSY-5Y; [9]) | inhibition at 10 µM (HCT-116; [10]) | inhibition at 0.5 µM (CDK-9/Cyclin T1; [12]) | inhibition at 10 µM (MDA-MB435; [13]) | inhibition at 10 µM (MCF-7; [14]) | inhibition at 0.5 µM (CDK-2/cyclin A; [15]) | inhibition at 10 µM (HCT-116; [16]) | inhibition at 10 µM (PC-3; [17]) | inhibition at 10 µM (MDA-MB435; [18]) | inhibition at 10 µM (MCF-7; [19]) | inhibition at 10 µM (SHSY-5Y; [20]) | inhibition at 10 µM (HCT-116; [21]) | further results
1 | Fc1ccc(-c2cnc3[nH]cc(-c4ccnc(NCCc5ccccc5)n4)c3c2)cc1 [1B2, 4-(5-(4-fluorophenyl)-1H-pyrrolo[2,3-b]pyridin-3-yl)-N-phenethylpyrimidin-2-amine] | < 50% | > 50% | > 50% | > 50% | > 50% | > 70% | > 70% | > 50% |  |  |  |  |  |  |  |  |  |  | inhibition at 0.5 µM (CDK-9/Cyclin T1; [2]): > 50%; inhibition at 0.5 µM (CDK-2/cyclin A; [6]): > 50%
2 | c1cncc(-c2cnc3[nH]cc(-c4ccnc(NC5CC5)n4)c3c2)c1 [1A15, N-cyclopropyl-4-(5-(pyridin-3-yl)-1H-pyrrolo[2,3-b]pyridin-3-yl)pyrimidin-2-amine] | > 50% | > 50% | > 70% | > 70% | > 50% | > 70% | > 70% | > 70% | > 50% | > 70% | > 70% | > 50% | > 70% |  |  |  |  |  | inhibition at 10 µM (PC-3; [11]): > 50%
3 | Fc1ccc(-c2cnc3[nH]cc(-c4ccnc(NC5CC5)n4)c3c2)cc1 [1A2, N-cyclopropyl-4-(5-(4-fluorophenyl)-1H-pyrrolo[2,3-b]pyridin-3-yl)pyrimidin-2-amine] | > 50% | > 70% | > 70% | > 70% | > 70% | > 70% | > 70% | > 70% | > 70% | > 70% | > 70% | > 70% | > 70% |  |  |  |  |  | inhibition at 10 µM (PC-3; [11]): > 50%
4 | FC(F)(F)c1ccc(-c2cnc3[nH]cc(-c4ccnc(NC5CCCCCC5)n4)c3c2)cc1 [1A41, N-cycloheptyl-4-(5-(4-(trifluoromethyl)phenyl)-1H-pyrrolo[2,3-b]pyridin-3-yl)pyrimidin-2-amine] | < 50% |  | < 50% | > 50% |  | > 70% | > 70% | > 50% | < 50% |  | > 50% | < 50% |  |  |  |  |  |  | 
5 | Fc1cccc(-c2cnc3[nH]cc(-c4ccnc(NC5CC5)n4)c3c2)c1 [1A5, N-cyclopropyl-4-(5-(3-fluorophenyl)-1H-pyrrolo[2,3-b]pyridin-3-yl)pyrimidin-2-amine] | > 70% | > 70% | > 70% | > 70% | > 70% | > 70% | > 70% | > 70% | > 70% | > 70% | > 70% | > 70% | > 70% |  |  |  |  |  | 
6 | Nc1nccc(-c2c[nH]c3ncc(-c4cccc(C(F)(F)F)c4)cc23)n1 [1C4, 4-(5-(3-(trifluoromethyl)phenyl)-1H-pyrrolo[2,3-b]pyridin-3-yl)pyrimidin-2-amine] |  | > 70% |  |  | > 70% |  | > 70% |  |  |  | > 70% |  |  | < 50% | > 70% | > 70% | > 70% | > 70% | inhibition at 0.5 µM (CDK-9/Cyclin T1; [2]): > 70%; inhibition at 0.5 µM (CDK-2/cyclin A; [6]): > 70%
7 | Nc1nccc(-c2c[nH]c3ncc(-c4ccc(OC(F)(F)F)cc4)cc23)n1 [1C3, 4-(5-(4-(trifluoromethoxy)phenyl)-1H-pyrrolo[2,3-b]pyridin-3-yl)pyrimidin-2-amine] |  |  |  |  |  |  | > 70% |  |  |  | > 70% |  |  | > 50% | > 70% | > 70% | > 70% | > 70% | 
8 | Nc1nccc(-c2c[nH]c3ncccc23)n1 [Meriolin 1, reference compound] |  |  |  |  |  |  |  |  |  |  |  |  |  |  |  |  |  |  | In vitro cell inhibition, % of inhibition, PC-3 (PC-3; Table 8): ++ (++ indicates greater than 50% of inhibition (++ >50% of inhibition)); In vitro cell inhibition, % of inhibition, PC-3 (PC-3; Table 9 (for reference)): ++ (++ indicates greater than 50% of inhibition (++ > 50% of inhibition)); In vitro CDK9 % of inhibition (CDK-9/Cyclin T1; Table-6): +++ (+++ indicates greater than 70% of inhibition (+++ >70% of inhibition)); In vitro cell inhibition, % of inhibition, MDA-MB435 (MDA-MB435; MDA-MB435, at 10µM, Table 8): ++ (++ indicates greater than 50% of inhibition (++ >50% of inhibition)); In vitro cell inhibition, % of inhibition, MDA-MB435 (MDA-MB435; MDA-MB435, at 10µM, Table 9 (for reference)): ++ (++ indicates greater than 50% of inhibition (++ > 50% of inhibition)); In vitro cell inhibition, % of inhibition, MCF-7 (MCF-7; Table 8): ++ (++ indicates greater than 50% of inhibition (++ >50% of inhibition)); In vitro cell inhibition, % of inhibition, MCF-7 (MCF-7; Table 9 (for reference)): ++ (++ indicates greater than 50% of inhibition (++ > 50% of inhibition)); In vitro cell inhibition, % of inhibition, SHSY-5Y (SHSY-5Y; SHSY-5Y, Table 8): +++ (+++ indicates greater than 70% of inhibition (+++ >70% of inhibition)); In vitro cell inhibition, % of inhibition, SHSY-5Y (SHSY-5Y; SHSY-5Y, Table 9 (for reference)): +++ (+++ indicates greater than 70% of inhibition (+++ >70% of inhibition)); In vitro cell inhibition, % of inhibition, HCT-116 (HCT-116; at 10µM, Table 8): ++ (++ indicates greater than 50% of inhibition (++ >50% of inhibition)); In vitro cell inhibition, % of inhibition, HCT-116 (HCT-116; at 10µM, Table 9 (for reference)): ++ (++ indicates greater than 50% of inhibition (++ > 50% of inhibition))
9 | Nc1nccc(-c2c[nH]c3ncc(-c4nccc5ccccc45)cc23)n1 [1C20, 4-(5-(isoquinolin-1-yl)-1H-pyrrolo[2,3-b]pyridin-3-yl)pyrimidin-2-amine] |  |  |  |  |  |  |  |  |  |  | > 50% |  |  | > 50% | > 50% | > 50% | > 50% | > 70% | 
10 | COc1ccc(-c2cnc3[nH]cc(-c4ccnc(N)n4)c3c2)cc1 [1C11, 4-(5-(4-methoxyphenyl)-1H-pyrrolo[2,3-b]pyridin-3-yl)pyrimidin-2-amine] |  |  |  |  |  |  | > 70% |  |  |  | > 50% |  |  | < 50% | > 70% | > 50% | > 70% | > 70% | 
